Experimental data: ChEMBL document CHEMBL5465560, “Selectivity Literature for EUbOPEN Chemogenomic Library” (2024)
One block for each compound: values may come before it.

Tests used:
[1] = molecular target: RAF proto-oncogene serine/threonine-protein kinase (Homo sapiens) (UniProt P04049); test: Selectivity interaction (KinomeScan (DiscoverX)) EUB0000666a RAF1; conditions: at 10 µM
[2] = molecular target: Mitogen-activated protein kinase 7 (Homo sapiens) (UniProt Q13164); test: Selectivity interaction (KinomeScan (DiscoverX)) EUB0000666a MAPK7; conditions: at 10 µM
[3] = molecular target: T1, Serine/threonine-protein kinase Nek3 (Homo sapiens) (UniProt P51956); test: Selectivity interaction (KinomeScan (DiscoverX)) EUB0000607a NEK3; conditions: at 10 µM
T1 sequence (whole entry): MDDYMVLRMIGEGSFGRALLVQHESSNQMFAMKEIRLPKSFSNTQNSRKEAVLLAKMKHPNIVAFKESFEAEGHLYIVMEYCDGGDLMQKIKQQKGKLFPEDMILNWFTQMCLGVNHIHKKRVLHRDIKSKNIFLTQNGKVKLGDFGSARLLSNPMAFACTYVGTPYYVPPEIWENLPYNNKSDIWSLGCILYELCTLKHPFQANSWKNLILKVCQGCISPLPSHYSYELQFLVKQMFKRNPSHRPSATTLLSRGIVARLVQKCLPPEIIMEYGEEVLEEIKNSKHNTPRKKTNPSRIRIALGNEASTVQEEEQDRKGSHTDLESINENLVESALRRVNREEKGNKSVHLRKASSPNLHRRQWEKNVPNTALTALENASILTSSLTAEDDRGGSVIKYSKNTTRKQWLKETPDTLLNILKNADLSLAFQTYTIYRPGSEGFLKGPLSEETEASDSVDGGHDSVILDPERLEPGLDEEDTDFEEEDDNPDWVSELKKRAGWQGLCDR

[4] = molecular target: Serine/threonine-protein kinase PAK 6 (Homo sapiens) (UniProt Q9NQU5); test: Selectivity interaction (SelectScreen profiling (Invitrogen)) EUB0000607a PAK6; conditions: at 2 µM
[5] = molecular target: Calcium/calmodulin-dependent protein kinase type 1G (Homo sapiens) (UniProt Q96NX5); conditions: at 10 µM
[6] = molecular target: RAC-alpha serine/threonine-protein kinase (Homo sapiens, UniProt P31749); test: Selectivity interaction (ActivX KiNativ screen (kinase selectivity in THP-1 cell lysates)) EUB0000639a AKT1; type: subcellular; conditions: lysate
[7] = molecular target: T2, Tyrosine-protein kinase TXK (Homo sapiens) (UniProt P42681); test: Selectivity interaction (Kinase panel (Invitrogen)) EUB0000639a TXK; conditions: at 200 nM
T2 sequence (whole entry): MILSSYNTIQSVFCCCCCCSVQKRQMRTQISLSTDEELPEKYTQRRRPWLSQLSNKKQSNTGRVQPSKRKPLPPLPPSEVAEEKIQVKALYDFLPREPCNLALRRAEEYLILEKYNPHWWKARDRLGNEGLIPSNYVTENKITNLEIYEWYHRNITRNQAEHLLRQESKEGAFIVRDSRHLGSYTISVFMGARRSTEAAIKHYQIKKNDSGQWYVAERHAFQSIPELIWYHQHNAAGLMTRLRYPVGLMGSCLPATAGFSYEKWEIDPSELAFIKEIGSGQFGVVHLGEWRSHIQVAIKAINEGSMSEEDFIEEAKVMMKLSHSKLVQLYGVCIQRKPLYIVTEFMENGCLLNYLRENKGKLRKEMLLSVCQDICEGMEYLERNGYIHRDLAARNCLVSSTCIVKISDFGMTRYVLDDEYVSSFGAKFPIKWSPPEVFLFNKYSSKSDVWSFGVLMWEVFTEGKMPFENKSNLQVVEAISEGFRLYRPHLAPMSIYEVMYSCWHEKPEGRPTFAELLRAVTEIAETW

[8] = molecular target: Mitogen-activated protein kinase kinase kinase 11 (Homo sapiens) (UniProt Q16584); test: Selectivity interaction (ActivX KiNativ screen (kinase selectivity in THP-1 cell lysates)) EUB0000639a MAP3K11; type: subcellular; conditions: lysate, at 1 µM
[9] = molecular target: High affinity nerve growth factor receptor (Homo sapiens, UniProt P04629); test: Selectivity interaction (Millipore kinase profiler) EUB0000124b NTRK1; conditions: at 10 µM
[10] = molecular target: Cell division cycle 7-related protein kinase (Homo sapiens, UniProt O00311); test: Selectivity interaction (Kinase panel (Enzyme activity assay)) EUB0000612a CDC7
[11] = molecular target: Casein kinase I isoform alpha (Homo sapiens, UniProt P48729); test: Selectivity interaction (KinomeScan (DiscoverX)) EUB0000045b CSNK1A1
[12] = molecular target: Calcium/calmodulin-dependent protein kinase type 1 (Homo sapiens) (UniProt Q14012); test: Selectivity interaction (KinomeScan (DiscoverX)) EUB0000045b CAMK1
[13] = molecular target: T3, Cyclin-dependent kinase-like 2 (Homo sapiens) (UniProt Q92772); test: Selectivity interaction (KinomeScan (DiscoverX)) EUB0001079a CDKL2; conditions: at 1 µM
T3 sequence (whole entry): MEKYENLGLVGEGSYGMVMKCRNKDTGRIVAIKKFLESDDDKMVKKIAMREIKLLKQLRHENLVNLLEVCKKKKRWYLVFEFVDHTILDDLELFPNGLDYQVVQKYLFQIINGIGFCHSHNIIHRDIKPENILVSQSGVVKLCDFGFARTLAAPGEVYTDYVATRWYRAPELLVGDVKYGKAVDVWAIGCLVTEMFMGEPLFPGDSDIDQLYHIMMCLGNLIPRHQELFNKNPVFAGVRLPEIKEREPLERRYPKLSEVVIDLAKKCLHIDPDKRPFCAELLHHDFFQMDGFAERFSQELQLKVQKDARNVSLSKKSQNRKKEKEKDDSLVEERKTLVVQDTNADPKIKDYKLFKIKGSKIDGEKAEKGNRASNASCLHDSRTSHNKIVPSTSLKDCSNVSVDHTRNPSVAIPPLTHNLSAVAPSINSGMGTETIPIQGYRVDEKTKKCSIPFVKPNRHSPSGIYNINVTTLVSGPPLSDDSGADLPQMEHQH

[14] = molecular target: MAP/microtubule affinity-regulating kinase 3 (Homo sapiens) (UniProt P27448); test: Selectivity interaction (Kinase panel (Carna Biosciences)) EUB0001542aTs MARK3; conditions: at 1 µM
[15] = molecular target: Casein kinase I isoform delta (Homo sapiens, UniProt P48730); conditions: at 10 µM
[16] = molecular target: 5'-AMP-activated protein kinase catalytic subunit alpha-1 (Homo sapiens, UniProt Q13131); conditions: at 10 µM
Chain of 5'-AMP-activated protein kinase catalytic subunit alpha-1 (Q13131 whole entry, looked up): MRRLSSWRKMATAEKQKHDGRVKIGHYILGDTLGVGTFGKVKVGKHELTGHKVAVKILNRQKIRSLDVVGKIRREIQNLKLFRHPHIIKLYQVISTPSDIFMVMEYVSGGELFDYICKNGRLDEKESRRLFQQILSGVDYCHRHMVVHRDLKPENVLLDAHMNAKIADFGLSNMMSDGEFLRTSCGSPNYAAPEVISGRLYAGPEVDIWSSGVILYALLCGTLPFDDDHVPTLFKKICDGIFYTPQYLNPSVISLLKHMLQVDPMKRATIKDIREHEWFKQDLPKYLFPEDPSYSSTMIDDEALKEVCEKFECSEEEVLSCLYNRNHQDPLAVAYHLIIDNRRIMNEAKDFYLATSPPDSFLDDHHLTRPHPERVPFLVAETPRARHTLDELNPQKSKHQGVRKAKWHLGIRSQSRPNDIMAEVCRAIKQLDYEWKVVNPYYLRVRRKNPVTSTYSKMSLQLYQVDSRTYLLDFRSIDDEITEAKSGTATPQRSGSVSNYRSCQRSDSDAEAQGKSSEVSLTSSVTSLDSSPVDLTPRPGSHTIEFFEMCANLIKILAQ

Chain of RAC-alpha serine/threonine-protein kinase (P31749 whole entry): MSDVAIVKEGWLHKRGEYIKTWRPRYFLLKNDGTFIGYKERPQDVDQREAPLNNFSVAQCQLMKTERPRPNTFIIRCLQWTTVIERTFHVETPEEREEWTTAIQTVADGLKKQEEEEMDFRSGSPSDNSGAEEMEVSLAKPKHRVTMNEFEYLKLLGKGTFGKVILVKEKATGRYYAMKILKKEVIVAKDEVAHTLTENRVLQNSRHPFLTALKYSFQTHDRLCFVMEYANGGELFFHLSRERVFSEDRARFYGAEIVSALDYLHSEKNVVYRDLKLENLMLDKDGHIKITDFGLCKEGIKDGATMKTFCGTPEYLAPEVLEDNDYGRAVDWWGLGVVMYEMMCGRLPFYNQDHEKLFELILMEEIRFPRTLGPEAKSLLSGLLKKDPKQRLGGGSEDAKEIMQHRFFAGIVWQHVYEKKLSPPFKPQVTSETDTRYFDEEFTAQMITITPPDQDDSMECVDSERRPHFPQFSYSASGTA
Chain of Casein kinase I isoform alpha (P48729 2-337 limits assumed): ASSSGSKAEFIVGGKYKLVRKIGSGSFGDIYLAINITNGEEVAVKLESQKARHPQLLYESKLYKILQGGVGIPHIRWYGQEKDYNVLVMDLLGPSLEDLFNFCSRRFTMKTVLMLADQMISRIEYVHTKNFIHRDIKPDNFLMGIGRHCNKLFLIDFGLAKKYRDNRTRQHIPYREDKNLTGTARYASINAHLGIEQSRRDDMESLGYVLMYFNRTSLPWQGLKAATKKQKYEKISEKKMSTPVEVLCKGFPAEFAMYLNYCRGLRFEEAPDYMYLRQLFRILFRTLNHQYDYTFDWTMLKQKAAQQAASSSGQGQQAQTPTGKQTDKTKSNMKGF
Chain of Calcium/calmodulin-dependent protein kinase type 1 (Homo sapiens) (Q14012 whole entry, looked up): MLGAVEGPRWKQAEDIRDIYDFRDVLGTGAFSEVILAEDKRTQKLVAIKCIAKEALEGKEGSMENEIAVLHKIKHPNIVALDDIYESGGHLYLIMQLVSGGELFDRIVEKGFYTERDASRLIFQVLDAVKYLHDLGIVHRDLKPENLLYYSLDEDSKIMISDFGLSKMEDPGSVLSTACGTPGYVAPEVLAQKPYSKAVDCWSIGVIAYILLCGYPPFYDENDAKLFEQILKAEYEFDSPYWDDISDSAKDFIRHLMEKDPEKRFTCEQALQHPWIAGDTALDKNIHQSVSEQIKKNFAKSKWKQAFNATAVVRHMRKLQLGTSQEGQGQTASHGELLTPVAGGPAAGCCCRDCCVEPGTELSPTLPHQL
Chain of Calcium/calmodulin-dependent protein kinase type 1G (Homo sapiens) (Q96NX5 whole entry): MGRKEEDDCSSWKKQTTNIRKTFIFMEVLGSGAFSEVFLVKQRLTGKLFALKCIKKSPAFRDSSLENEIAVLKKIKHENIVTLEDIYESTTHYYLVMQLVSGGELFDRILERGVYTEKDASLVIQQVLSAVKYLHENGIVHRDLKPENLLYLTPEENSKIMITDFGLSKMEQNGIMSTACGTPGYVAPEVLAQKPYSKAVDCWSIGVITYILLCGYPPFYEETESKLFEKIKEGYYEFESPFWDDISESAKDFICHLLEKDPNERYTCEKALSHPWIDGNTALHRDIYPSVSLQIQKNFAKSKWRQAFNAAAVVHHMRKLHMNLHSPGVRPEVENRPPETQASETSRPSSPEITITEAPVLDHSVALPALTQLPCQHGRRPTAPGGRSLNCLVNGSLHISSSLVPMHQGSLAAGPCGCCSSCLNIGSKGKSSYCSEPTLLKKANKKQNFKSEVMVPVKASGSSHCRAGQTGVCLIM
Chain of Mitogen-activated protein kinase kinase kinase 11 (Homo sapiens) (Q16584 whole entry, looked up): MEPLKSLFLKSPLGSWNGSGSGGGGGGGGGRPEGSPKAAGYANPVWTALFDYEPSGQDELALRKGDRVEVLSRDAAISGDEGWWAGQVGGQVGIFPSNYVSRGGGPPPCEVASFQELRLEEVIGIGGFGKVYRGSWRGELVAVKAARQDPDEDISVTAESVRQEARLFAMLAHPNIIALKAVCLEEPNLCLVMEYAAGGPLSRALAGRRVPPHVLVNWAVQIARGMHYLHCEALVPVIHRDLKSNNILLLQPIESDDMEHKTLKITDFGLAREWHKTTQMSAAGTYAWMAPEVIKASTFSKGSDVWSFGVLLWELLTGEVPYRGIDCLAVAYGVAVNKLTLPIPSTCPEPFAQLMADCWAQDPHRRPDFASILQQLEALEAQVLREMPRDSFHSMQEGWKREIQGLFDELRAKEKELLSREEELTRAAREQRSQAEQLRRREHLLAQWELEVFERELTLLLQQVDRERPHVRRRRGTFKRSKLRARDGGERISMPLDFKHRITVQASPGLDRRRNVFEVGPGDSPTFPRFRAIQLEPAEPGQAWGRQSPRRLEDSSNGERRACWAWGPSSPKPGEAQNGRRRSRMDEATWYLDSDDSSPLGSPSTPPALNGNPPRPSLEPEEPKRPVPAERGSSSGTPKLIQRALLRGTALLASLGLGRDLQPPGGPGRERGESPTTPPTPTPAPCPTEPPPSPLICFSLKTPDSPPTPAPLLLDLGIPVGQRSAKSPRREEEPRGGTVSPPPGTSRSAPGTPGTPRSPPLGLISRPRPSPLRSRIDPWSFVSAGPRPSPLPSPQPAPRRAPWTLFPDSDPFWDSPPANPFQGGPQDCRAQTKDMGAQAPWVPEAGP
Chain of Cell division cycle 7-related protein kinase (O00311 whole entry, canonical isoform): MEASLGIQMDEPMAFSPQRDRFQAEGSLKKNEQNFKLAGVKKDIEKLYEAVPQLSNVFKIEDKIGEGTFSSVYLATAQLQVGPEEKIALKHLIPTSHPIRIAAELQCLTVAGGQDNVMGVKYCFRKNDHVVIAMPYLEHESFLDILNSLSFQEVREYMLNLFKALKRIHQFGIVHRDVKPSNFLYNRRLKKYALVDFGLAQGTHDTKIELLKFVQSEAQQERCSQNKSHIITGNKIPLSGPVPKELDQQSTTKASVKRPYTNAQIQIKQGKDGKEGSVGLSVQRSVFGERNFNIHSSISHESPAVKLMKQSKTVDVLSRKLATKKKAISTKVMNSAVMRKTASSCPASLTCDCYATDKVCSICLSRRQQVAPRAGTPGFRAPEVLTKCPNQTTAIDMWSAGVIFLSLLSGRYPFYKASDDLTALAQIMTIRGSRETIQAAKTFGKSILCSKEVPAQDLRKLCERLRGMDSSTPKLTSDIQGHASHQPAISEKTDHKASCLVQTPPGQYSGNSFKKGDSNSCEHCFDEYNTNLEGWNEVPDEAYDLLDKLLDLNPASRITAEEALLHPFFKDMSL
Chain of Casein kinase I isoform delta (P48730 whole entry, looked up, canonical isoform): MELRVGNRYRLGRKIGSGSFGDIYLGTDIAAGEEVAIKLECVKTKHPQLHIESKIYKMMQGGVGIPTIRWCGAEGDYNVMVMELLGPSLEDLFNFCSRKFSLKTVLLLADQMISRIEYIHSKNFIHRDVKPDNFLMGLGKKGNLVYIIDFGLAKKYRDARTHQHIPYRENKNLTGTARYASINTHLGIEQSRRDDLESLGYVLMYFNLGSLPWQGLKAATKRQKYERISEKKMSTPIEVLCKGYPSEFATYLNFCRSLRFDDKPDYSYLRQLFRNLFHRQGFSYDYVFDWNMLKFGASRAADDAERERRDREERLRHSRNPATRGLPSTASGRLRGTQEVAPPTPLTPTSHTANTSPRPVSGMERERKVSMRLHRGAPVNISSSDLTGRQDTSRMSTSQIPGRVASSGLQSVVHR
Chain of High affinity nerve growth factor receptor (P04629 33-796 limits assumed): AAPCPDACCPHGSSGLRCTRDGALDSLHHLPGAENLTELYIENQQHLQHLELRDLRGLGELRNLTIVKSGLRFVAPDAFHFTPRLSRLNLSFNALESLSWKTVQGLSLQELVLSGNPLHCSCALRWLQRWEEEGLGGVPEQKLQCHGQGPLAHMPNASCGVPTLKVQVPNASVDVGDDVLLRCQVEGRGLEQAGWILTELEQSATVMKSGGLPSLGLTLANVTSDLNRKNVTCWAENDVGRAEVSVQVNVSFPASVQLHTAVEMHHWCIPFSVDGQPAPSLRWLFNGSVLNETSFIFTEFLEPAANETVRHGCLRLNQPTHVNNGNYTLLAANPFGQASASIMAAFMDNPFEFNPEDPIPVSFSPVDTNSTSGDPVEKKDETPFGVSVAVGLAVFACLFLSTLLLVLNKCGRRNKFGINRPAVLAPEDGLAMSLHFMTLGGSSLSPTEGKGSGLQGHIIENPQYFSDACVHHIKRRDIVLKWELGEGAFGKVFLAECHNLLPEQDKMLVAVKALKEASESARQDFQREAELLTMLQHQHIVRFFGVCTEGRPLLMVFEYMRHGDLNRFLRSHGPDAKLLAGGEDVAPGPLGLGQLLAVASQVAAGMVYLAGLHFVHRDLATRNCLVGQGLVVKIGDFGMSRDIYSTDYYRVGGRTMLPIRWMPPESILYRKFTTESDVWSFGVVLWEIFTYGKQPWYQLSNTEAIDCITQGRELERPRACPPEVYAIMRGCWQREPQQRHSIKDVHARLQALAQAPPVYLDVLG

Structure (SMILES): O=C(NOC[C@H](O)CO)c1ccc(F)c(F)c1Nc1ccc(I)cc1F
% of control [1]: 99%
% of control [2]: 88%

Structure (SMILES): CNC(=O)Nc1ccc(-c2nc(N3CC4CCC(C3)O4)c3cnn(C4CCC5(CC4)OCCO5)c3n2)cc1
% of control [3]: 100%
% of inhibition [4]: 11%

Structure (SMILES): CCN(CC)CCCCNc1ncc2cc(-c3cc(OC)cc(OC)c3)c(NC(=O)NC(C)(C)C)nc2n1
% of control [5]: 100%

Structure (SMILES): C=CC(=O)Nc1cc(-n2c(=O)ccc3cnc4ccc(-c5ccc(NS(C)(=O)=O)cc5)cc4c32)ccc1C
% of control ([11]; at 1 µM): 100%
% of control ([11]; at 10 µM): 100%
% of control ([12]; at 1 µM): 100%
% of control ([12]; at 10 µM): 88%

Structure (SMILES): Nc1cnc(N2CCc3cc(S(=O)(=O)Nc4c(F)cc(Cl)cc4F)cc(N4CCCC4=O)c32)nc1 [TP-020n]
% of control [13]: 85%

Structure (SMILES): Cc1cc([C@@H](C)Nc2ccccc2C(=O)O)c2nc(N3CCOCC3)cc(=O)n2c1 [AZD-6482]
% of control [15]: 86%
% of control [16]: 100%

Second part, the compound after the results:

% of inhibition ([6]; at 0.01 µM): -4.8%
% of inhibition ([6]; at 0.04 µM): 7.5%
% of inhibition ([6]; at 0.2 µM): 11.8%
% of inhibition ([6]; at 1 µM): 9.4%
% of inhibition ([6]; at 5 µM): 7.6%
% of inhibition [7]: 9.25%
% of inhibition [8]: -22.3%
Structure (SMILES): CC[C@@H]1[C@H](F)C(=O)N[C@@H]1COc1nccc2cc(C(N)=O)c(OC)cc12 [ZIMLOVISERTIB]

% of control [9]: 59%
Structure (SMILES): CC(=O)Nc1cccc(-n2c(=O)n(C3CC3)c(=O)c3c(Nc4ccc(I)cc4F)n(C)c(=O)c(C)c32)c1

IC50 [10]: > 10 µM
Structure (SMILES): CCc1cccc(CC)c1NC(=O)c1nn(C)c2c1CCc1cnc(Nc3ccc(C(=O)NC4CCN(C)CC4)cc3OC(F)(F)F)nc1-2

% of inhibition [14]: 50%
Structure (SMILES): Cn1cc(Nc2nccc(N3CC4CCC(C3)N4C(=O)[C@@H]3CC3(F)F)n2)cn1
